In this experiment the test system is mitochondrial fatty acid oxidation using palmitoyl CoA as substrate. In words: Palmitoyl CoA oxidation in isolated rat heart mitochondria. The format is biochemical. As to conditions: for Inhibition of mitochondrial fatty acid oxidation using palmitoyl CoA as substrate - % of Control, 50 μm (%): 50 μm compound; for Inhibition of mitochondrial fatty acid oxidation using palmitoyl CoA as substrate - % of Control, 50 μm (%) / Inhibition of mitochondrial fatty acid oxidation using palmitoyl CoA as substrate - % of Control, 100 μm (%): 15 min at 30° C.; for Inhibition of mitochondrial fatty acid oxidation using palmitoyl CoA as substrate - % of Control, 100 μm (%): 100 μm compound. On the procedure:
Rat heart mitochondria were isolated by the method of Nedergard and Cannon (Methods in Enzymol. 55, 3, 1979). Palmitoyl CoA oxidation—The Palmityl CoA oxidation was carried out in a total volume of 100 micro liters containing the following agents: 110 mM KCl, 33 mM Tris buffer at pH 8, 2 mM KPi, 2 mM MgCl2, 0.1 mM EDTA, 14.7 microM defatted BSA, 0.5 mM malic acid, 13 mM carnitine, 1 mM ADP, 52 micrograms of mitochondrial protein, and 16 microM 1-C14 palmitoyl CoA (Sp. Activity 60 mCi/mmole; 20 microCi/ml, using 5 microliters per assay). The compounds of this invention were added in a DMSO solution at the following concentrations: 100 microM, and 50 microM. In each assay, a DMSO control was used. After 15 min at 30° C., the enzymatic reaction was centrifuged (20,000 g for 1 min), and 70 microliters of the supernatant was added to an activated reverse phase silicic acid column (approximately 0.5 ml of silicic acid). The column was eluted with 2 ml of water, and 0.5 ml of the eluent was used for scintillation counting to determine the amount of C^14 trapped as C^14 bicarbonate ion.

Setting [1] is: Table IA, read-out: Effect on Palmitoyl CoA Oxidation (IC50).

Values joined by “and” are separate entries in the source; they are usually repeats but may differ in a detail not shown here. Identical values can stand only once. Like-named read-outs stand apart in the source and are kept apart here.

The IC50 is the concentration that gives 50% inhibition.

“2-(4-{(2S)-3-[2-(4-chlorophenyl)benzoxazol-5-yloxy]-2-hydroxypropyl}piperazinyl)-N-[2-(hydroxymethyl)-6-methylphenyl]acetamide”: the IC50 under setting [1] is 12 µM and 20 µM.

On to “2-(4-{(2S)-3-[2-(4-chlorophenyl)benzoxazol-5-yloxy]-2-hydroxypropyl}piperazinyl)-N-[4-(trifluoromethyl)phenyl]acetamide”, for which the IC50 under setting [1] is 12.9 µM.

Take “2-((3S)-4-{(2S)-3-[2-(2-chlorophenyl)benzoxazol-5-yloxy]-2-hydroxy-propyl}-3-methylpiperazinyl)-N-(2,6-dimethylphenyl)acetamide”: the 50% inhibitory concentration (IC50) under setting [1] was determined as 19 µM.

On to “2-((3S)-4-{(2S)-3-[2-(3-fluorophenyl)benzoxazol-5-yloxy]-2-hydroxy-propyl}-3-methylpiperazinyl)-N-(2,6-dimethylphenyl)acetamide”, for which the half-inhibitory concentration (IC50) under setting [1] is 16 µM.

With “2-{4-[(2R)-2-hydroxy-3-(2-methylbenzothiazol-5-yloxy)propyl]-3,3-dimethylpiperazinyl}-N-(2,6-dimethylphenyl)acetamide”, the IC50 under setting [1] came to 0.45 µM.

Regarding “2-{4-[(2S)-2-hydroxy-3-(2-methylbenzothiazol-5-yloxy)propyl]piperazinyl}-N-(3-phenoxyphenyl)acetamide”, the half-maximal inhibitory concentration (IC50) under setting [1] was found to be 0.39 µM.

As to “2-{4-[(2S)-2-hydroxy-3-(2-methylbenzothiazol-5-yloxy)propyl]piperazinyl}-N-(4-methylphenyl)acetamide”, the IC50 under setting [1] amounted to 1.7 µM.

With “2-{4-[(2S)-2-hydroxy-3-(2-methylbenzothiazol-5-yloxy)propyl]piperazinyl}-N-(4-phenylphenyl)acetamide”, the IC50 under setting [1] is 0.46 µM.

Consider “2-{4-[(2S)-2-hydroxy-3-(2-methylbenzothiazol-5-yloxy)propyl]piperazinyl}-N-[4-(4-chlorophenoxy)phenyl]acetamide”, for which the half-inhibitory concentration (IC50) under setting [1] came to 2 µM.

Turning to “2-{4-[(2S)-2-hydroxy-3-(2-methylbenzothiazol-5-yloxy)propyl]piperazinyl}-N-[4-(trifluoromethyl)phenyl]acetamide”, under setting [1], the IC50 was found to be 7.6 µM.

As to “2-{4-[(2S)-2-hydroxy-3-(2-methylbenzothiazol--yloxy)propyl]piperazinyl}-N-(4-phenoxyphenyl)acetamide”, the 50% inhibitory concentration (IC50) under setting [1] was 0.33 µM.

For “2-{4-[(2S)-2-hydroxy-3-(2-phenylbenzoxazol-5-yloxy)propyl]piperazinyl}-N-(3-phenylphenyl)acetamide”, the IC50 under setting [1] was 26 µM.

Take “2-{4-[(2S)-2-hydroxy-3-(2-phenylbenzoxazol-5-yloxy)propyl]piperazinyl}-N-(4-phenoxyphenyl)acetamide”: the IC50 under setting [1] was 11.3 µM.

For “2-{4-[(2S)-3-(2-cyclohexylbenzothiazol-5-yloxy)-2-hydroxypropyl]piperazinyl}-N-(2,6-dimethylphenyl)acetamide”, the IC50 under setting [1] is 6.5 µM.

Consider “2-{(3S)-4-[(2S)-2-hydroxy-3-(2-methylbenzothiazol-5-yloxy)propyl]-3-methylpiperazinyl}-N-(4-cyanophenyl)acetamide”, for which the concentration for half-maximal inhibition (IC50) under setting [1] was 0.41 µM.

Regarding `Cc1cccc(C)c1NC(=O)CN1CCN(C[C@H](O)COc2ccc3oc(-c4cccc(C(F)(F)F)c4)nc3c2)CC1` [2-[4-((2S)-2-hydroxy-3-{2-[3-(trifluoromethyl)phenyl]benzoxazol-5-yloxy}propyl)piperazinyl]-N-(2,6-dimethylphenyl)acetamide], the IC50 under setting [1] was determined as 13 µM.

As to `Cc1nc2cc(OC[C@H](O)CN3CCN(CC(=O)Nc4c(C)cccc4C)C[C@@H]3C)ccc2s1` [2-{4-[(2R)-2-hydroxy-3-(2-methylbenzothiazol-5-yloxy)propyl](3S)-3-methylpiperazinyl}-N-(2,6-dimethylphenyl)acetamide], the IC50 under setting [1] amounted to 5 µM.

Take `Cc1nc2cc(OC[C@H](O)CN3CCN(CC(=O)Nc4c(C)cccc4C)CC3)ccc2s1` [2-{4-[(2R)-2-hydroxy-3-(2-methylbenzothiazol-5-yloxy)propyl]piperazinyl}-N-(2,6-dimethylphenyl)acetamide]: under setting [1], the IC50 came to 4 µM.

For the compound `Cc1nc2cc(OC[C@@H](O)CN3CCN(CC(=O)Nc4c(C)cccc4C)CC3)ccc2s1` [2-{4-[(2S)-2-hydroxy-3-(2-methylbenzothiazol-5-yloxy)propyl]piperazinyl}-N-(2,6-dimethylphenyl)acetamide], the IC50 under setting [1] came to 8 µM.

For `Cc1nc2cc(OC[C@@H](O)CN3CCN(CC(=O)Nc4cccc(-c5ccccc5)c4)CC3)ccc2s1` [2-{4-[(2S)-2-hydroxy-3-(2-methylbenzothiazol-5-yloxy)propyl]piperazinyl}-N-(3-phenylphenyl)acetamide], the IC50 under setting [1] stood at 0.18 µM.

Consider `Cc1nc2cc(OC[C@H](O)CN3CCN(CC(=O)Nc4c(C)cccc4C)C[C@H]3C)ccc2s1` [2-{(3R)-4-[(2R)-2-hydroxy-3-(2-methylbenzothiazol-5-yloxy)propyl]-3-methylpiperazinyl}-N-(2,6-dimethylphenyl)acetamide], for which the IC50 under setting [1] is 10 µM.

As for `Cc1nc2cc(OC[C@@H](O)CN3CCN(CC(=O)Nc4c(C)cccc4C)C[C@H]3C)ccc2s1` [2-{(3R)-4-[(2S)-2-hydroxy-3-(2-methylbenzothiazol-5-yloxy)propyl]-3-methylpiperazinyl}-N-(2,6-dimethylphenyl)acetamide], the 50% inhibitory concentration (IC50) under setting [1] turned out to be 2 µM.

`Cc1nc2cc(OC[C@@H](O)CN3CCN(CC(=O)Nc4c(C)cccc4C)C[C@@H]3C)ccc2s1` [2-{(3S)-4-[(2S)-2-hydroxy-3-(2-methylbenzothiazol-5-yloxy)propyl]-3-methylpiperazinyl}-N-(2,6-dimethylphenyl)acetamide]: under setting [1], the half-inhibitory concentration (IC50) was determined as 0.2 µM.

Take `Cc1cccc(C)c1NC(=O)CN1CCN(CC(O)COc2ccc3oc(-c4cccc(C(F)(F)F)c4)nc3c2)CC1` (stereo not shown) [Compound 7, N-(2,6-dimethyl-phenyl)-2-(4-{2-hydroxy-3-[2-(3-trifluoromethylphenyl)benzoxazol-5-yloxy]-propyl}-piperazin-1-yl)acetamide]: the “Inhibition of mitochondrial fatty acid oxidation using palmitoyl CoA as substrate - % of Control, 50 μm (%)” value (from here on “Inhibition … 50 μm (%)”) came out at 77%.

As for `Cc1cccc(C)c1NC(=O)CN1CCN(CC(O)CNc2nc3ccccc3s2)CC1` (stereo not shown) [Compound 39, 2-{4-[3-(benzothiazol-2-ylamino)-2-hydroxypropyl]piperazinyl}-N-(2,6-dimethylphenyl)acetamide], the “Inhibition of mitochondrial fatty acid oxidation using palmitoyl CoA as substrate - % of Control, 100 μm (%)” value (shortened to “Inhibition … 100 μm (%)”) stood at 27%.

For `Cc1nc2ccc(OCC(O)CN3CCN(CC(=O)Nc4c(C)cccc4C)CC3)cc2s1` (stereo not shown) [Compound 49, N-(2,6-dimethylphenyl)-2-{4-[2-hydroxy-3-(2-methyl-benzothiazol-6-yloxy)-propyl]-piperazin-1-yl}aceamide], the “Inhibition … 100 μm (%)” value was determined as 3%.

`Cc1nc2cc(OCC(O)CN3CCN(CC(=O)Nc4ccc(O)cc4)CC3)ccc2s1` (stereo not shown) [Compound 54, 2-{4-[2-hydroxy-3-(2-methyl-benzothiazol-5-yloxy)-propyl]-piperazin-1-yl}-N-(4-hydroxy-phenyl)acetamide]: the “Inhibition … 100 μm (%)” value turned out to be 81%. For the same compound, the IC50 (Table 1, read-out: IC50 (μm), inhibition of mitochondrial fatty acid oxidation using palmitoyl CoA as substrate) was around 8 µM.

Turning to `Cc1cccc(C)c1NC(=O)CN1CCN(CC(O)COc2ccc3oc(-c4ccccc4)nc3c2)CC1` (stereo not shown) [Compound 60, N-(2,6-dimethylphenyl)-2-{4-[2-hydroxy-3-(2-phenyl-benzoxazol-5-yloxy)-propyl)-piperazin-1-yl}acetamide], the “Inhibition … 50 μm (%)” value came out at 61%.

On to `Cc1cccc(C)c1NC(=O)CN1CCN(CC(O)COc2cccc3nc(-c4ccccc4)sc23)CC1` (stereo not shown) [Compound 62], for which the “Inhibition … 50 μm (%)” value stood at 62%.

As for `Cc1nc2cc(OCC(O)CN3CCN(CC(=O)Nc4c(C)cccc4C)C(=O)C3)ccc2s1` (stereo not shown) [Compound 64, N-(2,6-dimethylphenyl)-2-{4-[2-hydroxy-3-(2-methyl-benzothiazol-5-yloxy)-propyl]-2-oxo-piperazin-1-yl}acetamide], the “Inhibition … 100 μm (%)” value worked out at 41%.

For the compound `Cc1cccc(C)c1NC(=O)CN1CCN(CC(O)COc2ccc3oc(-c4ccc(C(F)(F)F)cc4)nc3c2)CC1` (stereo not shown) [Compound 68, N-(2,6-dimethylphenyl)-2-(4-{2-hydroxy-3-[2-(4-trifluoromethyl-phenyl)benzoxazol-5-yloxy]-propyl}-piperazin-1-yl)acetamide], the “Inhibition … 50 μm (%)” value came to 68%.

As to `Cc1cccc(C)c1NC(=O)CN1CCN(CC(O)COc2cccnc2)CC1` (stereo not shown) [Compound 72, N-(2,6-dimethylphenyl)-2-{4-[2-hydroxy-3-(pyridin-3-yloxy)-propyl]-piperazin-1-yl}acetamide], the “Inhibition … 100 μm (%)” value was 8%.

Turning to `Cc1cccc(C)c1NC(=O)CN1CCN(CC(O)CNc2nc3ccccc3o2)CC1` (stereo not shown) [Compound 82, 2-{4-[3-(benzoxazol-2-ylamino)-2-hydroxypropyl]piperazinyl}-N-(2,6-dimethylphenyl)acetamide], the “Inhibition … 100 μm (%)” value is recorded as 22%.
